Measured values taken from the supplement of paper PMC10307832.

Assays:
Test in all cases: relative viability (nuclei count vs DMSO), 5 days (fraction); higher = more cells survive
[1] = tested on: NCI-H1563
Method in brief: (§1)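 Lung cancer cell lines in 1536-well plates got either a single drug or a fixed anchor-drug dose together with five library-drug doses (not always all listed) in √10 steps, by pin tool, on the day after seeding. Nuclei were counted after 5 days, and relative viability is the treated-to-vehicle ratio of nuclei counts. Values are medians of duplicate plates.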

[2] = tested on: PC-3 [JPC-3]
Method in brief: as §1

[3] = tested on: EMC-BAC-2
Method in brief: as §1

[4] = tested on: NCI-H520
Method in brief: as §1

[5] = tested on: NCI-H596
Method in brief: as §1

[6] = tested on: NCI-H1666
Method in brief: as §1

[7] = tested on: NCI-H1755
Method in brief: as §1

[8] = tested on: LOU-NH91
Method in brief: as §1

[9] = tested on: NCI-H1975
Method in brief: as §1

[10] = tested on: H3255
Method in brief: as §1

[11] = tested on: ChaGo-K-1
Method in brief: as §1

[12] = tested on: A-427
Method in brief: as §1

[13] = tested on: COR-L 105
Method in brief: as §1

[14] = tested on: NCI-H23
Method in brief: as §1

[15] = tested on: EKVX
Method in brief: as §1

[16] = tested on: HCC-366
Method in brief: as §1

[17] = tested on: NCI-H441
Method in brief: as §1

[18] = tested on: NCI-H1734
Method in brief: as §1

SMILES: O=c1cc(N2CCOCC2)oc2c(-c3cccc4c3sc3ccccc34)cccc12 + CC(C)C[C@H](NC(=O)[C@H](Cc1ccccc1)NC(=O)c1cnccn1)B(O)O [Bortezomib] (partner 0.002 µM)
- relative viability ([1]; first compound 0.01 µM): 1
- relative viability ([1]; first compound 0.03162 µM): 0.809
- relative viability ([1]; first compound 0.1 µM): 0.9
- relative viability ([1]; first compound 0.3162 µM): 0.734
- relative viability ([1]; first compound 1 µM): 0.762
- relative viability ([2]; first compound 0.01 µM): 0.824
- relative viability ([2]; first compound 0.03162 µM): 0.744
- relative viability ([2]; first compound 0.1 µM): 0.745
- relative viability ([2]; first compound 0.3162 µM): 0.749
- relative viability ([2]; first compound 1 µM): 0.862
- relative viability ([3]; first compound 0.01 µM): 1.06
- relative viability ([3]; first compound 0.03162 µM): 1.09
- relative viability ([3]; first compound 0.1 µM): 1.15
- relative viability ([3]; first compound 0.3162 µM): 1.11
- relative viability ([3]; first compound 1 µM): 1.02
- relative viability ([4]; first compound 0.01 µM): 0.66
- relative viability ([4]; first compound 0.03162 µM): 0.446
- relative viability ([4]; first compound 0.1 µM): 0.472
- relative viability ([4]; first compound 0.3162 µM): 0.64
- relative viability ([4]; first compound 1 µM): 0.752
- relative viability ([5]; first compound 0.01 µM): 0.897
- relative viability ([5]; first compound 0.03162 µM): 1.07
- relative viability ([5]; first compound 0.1 µM): 1.37
- relative viability ([5]; first compound 0.3162 µM): 1.06
- relative viability ([5]; first compound 1 µM): 1.08
- relative viability ([6]; first compound 0.01 µM): 0.678
- relative viability ([6]; first compound 0.03162 µM): 0.804
- relative viability ([6]; first compound 0.1 µM): 0.909
- relative viability ([6]; first compound 0.3162 µM): 0.703
- relative viability ([6]; first compound 1 µM): 0.751
- relative viability ([7]; first compound 0.01 µM): 1.02
- relative viability ([7]; first compound 0.03162 µM): 0.873
- relative viability ([7]; first compound 0.1 µM): 0.959
- relative viability ([7]; first compound 0.3162 µM): 1.03
- relative viability ([7]; first compound 1 µM): 0.977
- relative viability ([8]; first compound 0.01 µM): 0.448
- relative viability ([8]; first compound 0.03162 µM): 0.487
- relative viability ([8]; first compound 0.1 µM): 0.538
- relative viability ([8]; first compound 0.3162 µM): 0.548
- relative viability ([8]; first compound 1 µM): 0.457
- relative viability ([9]; first compound 0.01 µM): 0.384
- relative viability ([9]; first compound 0.03162 µM): 0.387
- relative viability ([9]; first compound 0.1 µM): 0.479
- relative viability ([9]; first compound 0.3162 µM): 0.349
- relative viability ([9]; first compound 1 µM): 0.372
- relative viability ([10]; first compound 0.01 µM): 0.696
- relative viability ([10]; first compound 0.03162 µM): 0.806
- relative viability ([10]; first compound 0.1 µM): 0.761
- relative viability ([10]; first compound 0.3162 µM): 0.854
- relative viability ([10]; first compound 1 µM): 0.604
- relative viability ([11]; first compound 0.01 µM): 0.64
- relative viability ([11]; first compound 0.03162 µM): 0.915
- relative viability ([11]; first compound 0.1 µM): 0.897
- relative viability ([11]; first compound 0.3162 µM): 1.04
- relative viability ([11]; first compound 1 µM): 0.977
- relative viability ([12]; first compound 0.01 µM): 0.991
- relative viability ([12]; first compound 0.03162 µM): 1.04
- relative viability ([12]; first compound 0.1 µM): 1.03
- relative viability ([12]; first compound 0.3162 µM): 0.871
- relative viability ([12]; first compound 1 µM): 1.03
- relative viability ([13]; first compound 0.01 µM): 0.793
- relative viability ([13]; first compound 0.03162 µM): 0.793
- relative viability ([13]; first compound 0.1 µM): 0.769
- relative viability ([13]; first compound 0.3162 µM): 0.895
- relative viability ([13]; first compound 1 µM): 0.807
- relative viability ([14]; first compound 0.01 µM): 1.13
- relative viability ([14]; first compound 0.03162 µM): 1.08
- relative viability ([14]; first compound 0.3162 µM): 1.01
- relative viability ([14]; first compound 1 µM): 0.946
- relative viability ([15]; first compound 0.01 µM): 1.03
- relative viability ([15]; first compound 0.03162 µM): 1.09
- relative viability ([15]; first compound 0.1 µM): 1.02
- relative viability ([15]; first compound 0.3162 µM): 1.11
- relative viability ([15]; first compound 1 µM): 1.05
- relative viability ([16]; first compound 0.01 µM): 1.09
- relative viability ([16]; first compound 0.03162 µM): 1.09
- relative viability ([16]; first compound 0.1 µM): 1.03
- relative viability ([16]; first compound 0.3162 µM): 1.06
- relative viability ([16]; first compound 1 µM): 1.04
- relative viability ([17]; first compound 0.01 µM): 0.443
- relative viability ([17]; first compound 0.03162 µM): 0.565
- relative viability ([17]; first compound 0.1 µM): 0.487
- relative viability ([17]; first compound 0.3162 µM): 0.301
- relative viability ([17]; first compound 1 µM): 0.684
- relative viability ([18]; first compound 0.01 µM): 0.92
- relative viability ([18]; first compound 0.03162 µM): 0.808
- relative viability ([18]; first compound 0.1 µM): 1.01
- relative viability ([18]; first compound 0.3162 µM): 0.938
- relative viability ([18]; first compound 1 µM): 0.899
